Test results from a melting point compilation (Tetko et al.; mined from patent text by program, amines drawn as free bases though some values may be those of a salt).

SMILES	melting point [°C]
COc1cccc2cc(C(=O)Nc3ccc(-n4nc(C(F)(F)F)cc4C(F)(F)F)cc3)oc12	109 to 110
CCOCCNCc1ccc(C(=O)Nc2nc(-c3ccccc3)c(-c3ccc(=O)n(C(C)C)n3)s2)cc1	153 to 154
COc1ccc(COC(=O)c2nc(-c3ccc(Cl)c(OC)c3F)cc(N)c2Cl)cc1	73 to 83
CC(C)(C)CC(C)(C)c1cc(-n2nc3ccccc3n2)c(O)c(C(C)(C)c2ccccc2)c1	109 to 111
COC(=O)c1ccc(CSCC(=O)[C@H](Cc2ccccc2)NC(=O)[C@H](CC(C)C)NC(=O)OCc2ccccc2)o1	85 to 93
COC(=O)c1ccc(C(=O)c2ccc(NC(C)=O)cc2)cc1	212
COC(=O)O[C@@H]1[C@@H](c2ccccc2)Nc2c(ccn3c(C)c(C)nc23)[C@H]1OC	90 to 91
CCn1nc2ccc(Cl)nn2c1=O	150 to 152
COc1ccc(S(=O)(=O)N2CCc3[nH]c4c(cnc5cc(Cl)ccc54)c3C2)cc1	> 250
CCn1c(=O)c2[nH]c(/C=C/c3cccc(C(F)(F)F)c3)nc2n(CC)c1=O	> 270
COCCCNc1cc(C)ccc1N	69 to 72
O=C1NC(=S)SC1=Cc1ccc(OCc2ccccc2)cc1	> 225
COC(=O)c1ccc(OCC=C(C)CCC=C(C)C)cc1	30 to 33
CCOc1ccccc1C(=O)NCCN1CCC(O)(c2ccc(Cl)cc2)CC1	171 to 173
Cc1nc2c(c3c1[nH]c1ccc(F)cc13)C(=O)CC(C)(C)C2	229 to 230
N#Cc1ccc(OCC(O)CN2CC3CC(C2)CN(C(=O)OCc2ccc([N+](=O)[O-])cc2)C3)cc1 (stereo not drawn)	165 to 166
CCCOc1ccc(S(=O)(=O)N2CCN(CC)CC2)cc1-c1nc2cc(N)c(N)cc2c(=O)[nH]1	183 to 186
CCc1nnc(-c2ccc(NC=O)cc2)n1-c1ccccc1OC	250
CCCC(=O)c1cnn(C)c1S(=O)(=O)NC(=O)Nc1nc(C)nc(OC)n1	174 to 176
COC(=O)c1cc(OC(C)=O)c2cc(-c3ccc4c(c3)C(C)(C)CCC4(C)C)ccc2c1C	170
CSc1ccc(C2=NNC(=O)CC2c2ccccc2)cc1 (stereo not drawn)	213 to 214
O=C1C(F)N(c2ccc(Oc3ccccc3)cc2)C(=S)N1c1ccccc1 (stereo not drawn)	126
CN1CCCCC1CCc1ccccc1NC(=O)c1ccc(C(F)(F)F)cc1 (stereo not drawn)	150
COC(=O)[C@H](Cc1ccccc1)NC(=O)N(Cc1ccccc1)NC(=O)OC(C)(C)C	71 to 73
CN(C)c1cccc(C(=O)Nc2ccc3ccc(Cl)nc3n2)c1	215

SMILES	melting point [°C]
CC1=C(S(=O)(=O)c2ccc(C)cc2)C(c2ccc(C)cc2)C(C#N)=C(CC(C)C)N1 (stereo not drawn)	135 to 137
O=C(O)c1cccc(Cc2cc(Cl)cc(Cc3ccccc3O)c2O)c1O	198 to 200
CC1C(OC(=O)CCCCCCCCC(=O)OC2C(C)C(c3ccccc3)N(O)C(c3ccccc3)C2C)C(C)C(c2ccccc2)N(O)C1c1ccccc1 (stereo not drawn)	190 to 191
C(=Cc1ccccc1)COc1ccc2c(c1)OCO2	83
CCCCCCCCCCCCCCCCC[C@H](O)C[C@@H]1OC(=O)[C@H]1CC	80 to 82
CN(C)c1ccc(NC(=O)C(C#N)C(=O)c2nn(-c3ccccc3)c3c2CSc2ccccc2-3)cc1 (stereo not drawn)	215 to 216
CCOC(=O)C(C(C)C)S(=O)(=O)c1ccc(OC)cc1 (stereo not drawn)	53
CN1CCCC(O)(c2nccnc2Cl)C1 (stereo not drawn)	111 to 112
CC1(C)Nc2cc(F)ccc2NC1=O	148 to 149
CCC(O)(c1ccc(OCCCc2ccccc2)cc1)c1ccccc1OC (stereo not drawn)	75 to 76
COc1cc(OC)nc(NC(=O)NS(=O)(=O)c2c([Si](C)(C)C)ccc3c2S(=O)(=O)C(C)C3)n1 (stereo not drawn)	188 to 190
Brc1cccc2c1Cc1ccccc1-2	102 to 103
CC(CO)(CO)NCc1c2ccccc2cc2cc3ccccc3cc12	198 to 199
CCCCCCCCCCCCCCCc1cc2cc(C(=O)OCCCC)ccc2[nH]1	79 to 80
CC(C)(C)c1ccc(OS(C)(=O)=O)c(C(C)(C)C)c1	63
COc1ccc2c(C(=O)Nc3ccc(CN4CCN(C)CC4)c(C(F)(F)F)c3)nsc2c1	156
CCc1nn(CCOC(N)=O)c(CC)c1Cc1cc(Cl)cc(Cl)c1	145 to 147
N=C(N)c1ccnc(-c2ccc(-c3ccc(-c4cc(C(=N)N)ccn4)s3)s2)c1	> 300
Cc1ccc(S(=O)(=O)Oc2ccc(S(=O)(=O)C3=C(C(C)C)OCC3)cc2)cc1	103
CCCCCCCCCCCCCCc1ccc(C(=O)OC)cc1	28 to 29
Cc1cc(C)c2nc(C)n(Cc3ccc(NCC4CCN(C5CCN(C)CC5)CC4)cc3)c2n1	118 to 120
CC#CC(O)(C#CC)c1cc(-c2cccc(Cl)c2)ccc1N	112 to 114
C=CCNc1c(C(=O)OCC)cnc2cn(C(C)(C)OC)nc12	102 to 103
Oc1cccc2c1CC1C(C2)C1(Cl)Cl (stereo not drawn)	89 to 93
CC(=O)N1CCN(c2ccc(Nc3nccc(-c4sc(N)nc4C)n3)cc2)CC1	267 to 269

SMILES	melting point [°C]
C=C(C)COc1ccc(C(=O)C=Cc2cccc(OC)c2)c(O)c1	97 to 100
CCSCc1ccc(C(=O)c2ccc(Cl)cc2)cc1	33 to 34
CN(C)C(=O)c1ccc(CNC(=O)C2Cc3ccccc3N2S(=O)(=O)c2ccc(-c3cccc(C(F)(F)F)c3)cc2)cc1 (stereo not drawn)	70
Cc1cccc(C(=O)NCc2cccc3c2CN(C2CCC(=O)NC2=O)C3=O)c1 (stereo not drawn)	253 to 255
N#Cc1cccc(C2=Nc3ccc(-c4cc(F)ccc4F)cc3NC(=O)C2)c1	247
COC(=O)c1cn(C2CC2)c2nc(C)ccc2c1=O	204 to 205
CNc1nc(-c2cccc(NC(=O)c3cccc(O)c3)c2)c2cc(OC)c(OC)cc2n1	265 to 267
CC(C)CC(NC(=O)C(NCc1ccccc1)C(C)C)C(=O)NC(CCCCNC(=O)OCc1ccccc1)C(=O)Oc1cccc2ccccc12 (stereo not drawn)	153 to 156
CCCc1nc(-n2cccc2C(=O)C(F)(F)F)c(C(=O)OC)[nH]1	158 to 159
CCc1ccc2c(c1)C=Cc1cc(C)ccc1C2c1cn(-c2ccc(SCC(=O)O)nn2)c(=O)[nH]c1=O (stereo not drawn)	225 to 230
Cc1cnc(C(=O)NCCc2ccc(S(N)(=O)=O)cc2)cn1	190 to 200
CCOC(=O)CCc1ccc(N[C@@H](CCC(N)=O)C(=O)O)cc1	180 to 181
COC(=O)[C@@H]1C[C@H](C(=O)O)Nc2cc(C)cc(C)c21 (relative stereo)	173
C=CCOc1cc2oc(=O)ccc2cc1C	124 to 125
COc1ccc(Nc2cc(C)nc(SCC(N)=NO)n2)cc1	189 to 191
CCCCCCCCCCCC(=O)N(N=C=S)C(CCCCN)C(=O)O (stereo not drawn)	37 to 39
Cc1ccc(N2C(=O)C(O)=C(C(=O)c3ccc(C(C)C)cc3)C2c2ccc(Oc3ccccn3)cc2)nn1 (stereo not drawn)	280
O=CCOc1ccc(CCC(=O)O)cc1	95 to 100
CCCCn1c(=O)n2cnnc2c2[nH]c(-c3cc(S(=O)(=O)N4CCN(C(C)(C)CO)CC4)ccc3OCCC)nc21	237
COC(=O)c1c(OCc2ccccc2)ccc2c1CCCC2	59 to 61
COc1cc2c(cc1Nc1ncc(Cl)c(Nc3ccccc3S(=O)(=O)N3CCC(O)C3)n1)CCN(CC(=O)N(C)C)CC2 (stereo not drawn)	70 to 84
O=C1NC(=O)C2(N1)C1CC3CC(C1)CC2C3 (stereo not drawn)	290 to 293
Cn1c(=O)nc(-c2ccccc2)c2cc(Cl)sc21	136 to 140
CCN(C(=O)C(C)Oc1ccc(Oc2ncc(Cl)cc2Cl)cc1)C(CS)C(=O)O (stereo not drawn)	89 to 91
O=C1Nc2cc(Cl)ccc2N[C@H]1Cc1ccccc1	185

SMILES	melting point [°C]
COc1c(C)cnc(C#N)c1C	59 to 61
CC(=O)N1CCN(c2ccc(-c3ccn[nH]3)cc2)CC1	257 to 259
CCCCn1c(C)c(C(=O)Nc2c(CC)cccc2CC)c(=O)c(Br)c1CC	132 to 134
Oc1cccc(-n2nc(-c3ccccc3)c3cccnc32)c1	142 to 144
Cn1c(C#N)ccc1-c1ccc2c(c1)C1(CCCCC1)C(=S)N2	269 to 272
OCc1cc(Cl)c(Br)cn1	109 to 110
CCCCNC(=NC#N)Nc1ccc(C2=NNC(=O)CC2C)cc1 (stereo not drawn)	184 to 186
COc1ccc2c(Cc3c(Cl)cncc3Cl)nn(CC(=O)O)c(=O)c2c1	221 to 222
COc1ccc(-c2cc3ccccc3[nH]2)c(C)c1	131
CCCCCCCCCCCCCCOC(=O)NO	64 to 66
CN(C)C=C1CN=C(c2ccccc2Cl)c2cc(Cl)ccc2C1=O	170 to 171
O=[N+]([O-])c1ccc(-c2cccnc2)cc1	145 to 148
COc1ccc(-c2cc(-c3ccc(-c4c(Cc5ccccc5)sc5ccccc45)cc3)cc(Br)c2OCC(=O)O)cc1OC	103 to 105
COc1cc2nc(N3CCN(C(=O)C=Cc4ccc(Cl)c(Cl)c4)CC3)nc(N)c2cc1OC	196 to 198
CC(C)(C)OC(=O)N1CCC(O)(Cc2ccc3ccccc3n2)CC1	119 to 121
COC(=O)COc1cccc2c(CNC(=O)COc3ccccc3)coc12	101 to 102
Cn1c([N+](=O)[O-])cnc1-c1nnc2ccc(N=CN3CCC(O)CC3)nn12	188 to 190
CCOC(=O)C(=Nc1ccccc1)c1cccn1C	69 to 71
CC(=O)N1CC(=O)N(C)C(=O)N1c1cc(Cl)c(C(C#N)c2ccc(Cl)cc2)c(Cl)c1 (stereo not drawn)	178
CC1(C)OC(=O)[C@H](CC(=O)O)O1	108 to 110
CCOC(=O)C(C)(OC)C(=O)Nc1ccc(Br)cc1C (stereo not drawn)	99 to 103
N#Cc1ccc(C#CCN2CCc3nc(N)sc3CC2)cc1	174 to 176
CCOc1nc(Cc2ccc(Cl)cc2)nc(O)c1NC(=O)c1ccco1	91.5 to 92.5
